# Numbers after ± are expanded uncertainties.
# Conditions: 101 kPa, Liquid; for viscosity: Capillary tube (Ostwald / Ubbelohde) method; for mass density: Vibrating tube method
SMILES,viscosity (293.15 K),mass density (293.15 K),viscosity (303.15 K),mass density (303.15 K),viscosity (313.15 K),mass density (313.15 K),viscosity (323.15 K),mass density (323.15 K)
CC(O)CN (stereo not given) [1-amino-2-propanol],30.44 ± 0.65 mPa·s,960.81 ± 1 kg/m3,17.87 ± 0.39 mPa·s,952.25 ± 1 kg/m3,10.79 ± 0.23 mPa·s,944.43 ± 1 kg/m3,6.99 ± 0.15 mPa·s,936.21 ± 1 kg/m3
CCO [ethanol],1.17 ± 0.02 mPa·s,788.88 ± 1 kg/m3,0.97 ± 0.02 mPa·s,781.69 ± 1 kg/m3,0.81 ± 0.02 mPa·s,772.3 ± 1 kg/m3,0.69 ± 0.02 mPa·s,765.29 ± 1 kg/m3
NCCCO [3-amino-1-propanol],40.26 ± 0.86 mPa·s,987.5 ± 1 kg/m3,24.03 ± 0.52 mPa·s,979.45 ± 1 kg/m3,15.08 ± 0.32 mPa·s,971.67 ± 1 kg/m3,10.01 ± 0.22 mPa·s,963.36 ± 1 kg/m3

# Second part, the compound after the results:
viscosity (293.15 K),mass density (293.15 K),viscosity (303.15 K),mass density (303.15 K),viscosity (313.15 K),mass density (313.15 K),viscosity (323.15 K),mass density (323.15 K),SMILES
136.19 ± 3.6 mPa·s,1029.14 ± 1 kg/m3,71.64 ± 1.6 mPa·s,1021.45 ± 1 kg/m3,39.59 ± 0.86 mPa·s,1014.18 ± 1 kg/m3,23.41 ± 0.52 mPa·s,1006.54 ± 1 kg/m3,NCCNCCO [N-(2-aminoethyl)ethanolamine]
6.99 ± 0.15 mPa·s,951.16 ± 1 kg/m3,4.79 ± 0.1 mPa·s,942.19 ± 1 kg/m3,3.45 ± 0.07 mPa·s,933.93 ± 1 kg/m3,2.6 ± 0.06 mPa·s,925.42 ± 1 kg/m3,NCCNCCN [di(2-aminoethyl)amine]

# Source: the NIST ThermoML archive (doi:10.1021/acs.jced.7b00321)
